{"source": "patent US12343326B2", "about": "“Psychoactive medicines and their use for treating psychiatric and neurological conditions and disorders” (Transcend Therapeutics, Inc., priority 2021, dated 2025)", "test_in_all_cases": "β-arrestin based GPCR screen (PathHunter / GPCRmax), agonist mode", "format_in_all_cases": "cell-based", "parameters_in_all_cases": "host or cells: PathHunter cell lines", "key": {"[1]": {"target": "168 GPCRs (Homo sapiens, UniProt O95136)", "procedure": "(§1) For agonist determination, cells were incubated with sample to induce response. […] Vehicle concentration was 1%."}, "[2]": {"target": "168 GPCRs (Homo sapiens, UniProt P08588)", "details": "ADRB1, Agonist", "procedure": "as §1"}, "[3]": {"target": "168 GPCRs (Homo sapiens, UniProt P14416)", "details": "DRD2L", "procedure": "as §1"}, "[4]": {"target": "168 GPCRs (Homo sapiens, UniProt P21452)", "sequence (P21452 whole entry)": "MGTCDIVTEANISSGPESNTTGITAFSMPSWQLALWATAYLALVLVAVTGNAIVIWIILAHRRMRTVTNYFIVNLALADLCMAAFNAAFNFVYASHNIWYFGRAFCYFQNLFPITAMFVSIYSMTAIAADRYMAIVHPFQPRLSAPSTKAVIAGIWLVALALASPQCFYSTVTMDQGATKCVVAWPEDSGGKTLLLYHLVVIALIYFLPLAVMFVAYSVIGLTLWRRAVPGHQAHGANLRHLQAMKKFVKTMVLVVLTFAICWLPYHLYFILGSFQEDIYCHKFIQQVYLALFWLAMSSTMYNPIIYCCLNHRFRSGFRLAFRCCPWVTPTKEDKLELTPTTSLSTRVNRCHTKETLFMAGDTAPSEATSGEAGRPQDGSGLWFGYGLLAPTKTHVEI", "procedure": "as §1"}, "[5]": {"target": "168 GPCRs (Homo sapiens, UniProt P21917)", "procedure": "as §1"}, "[6]": {"target": "168 GPCRs (Homo sapiens, UniProt P30518)", "details": "AVPR2, Agonist", "procedure": "as §1"}, "[7]": {"target": "168 GPCRs (Homo sapiens, UniProt P30874)", "sequence (P30874 whole entry)": "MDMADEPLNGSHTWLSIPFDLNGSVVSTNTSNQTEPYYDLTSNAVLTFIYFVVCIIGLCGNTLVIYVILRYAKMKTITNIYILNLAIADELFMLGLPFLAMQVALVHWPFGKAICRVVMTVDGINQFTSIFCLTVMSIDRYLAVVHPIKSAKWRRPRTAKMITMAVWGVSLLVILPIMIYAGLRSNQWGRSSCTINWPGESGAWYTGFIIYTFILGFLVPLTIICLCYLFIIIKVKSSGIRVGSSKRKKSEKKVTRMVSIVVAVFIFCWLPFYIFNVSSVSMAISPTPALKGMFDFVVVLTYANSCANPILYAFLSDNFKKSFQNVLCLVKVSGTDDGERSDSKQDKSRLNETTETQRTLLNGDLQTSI", "procedure": "as §1"}, "[8]": {"target": "168 GPCRs (Homo sapiens, UniProt P32239)", "sequence (P32239 whole entry)": "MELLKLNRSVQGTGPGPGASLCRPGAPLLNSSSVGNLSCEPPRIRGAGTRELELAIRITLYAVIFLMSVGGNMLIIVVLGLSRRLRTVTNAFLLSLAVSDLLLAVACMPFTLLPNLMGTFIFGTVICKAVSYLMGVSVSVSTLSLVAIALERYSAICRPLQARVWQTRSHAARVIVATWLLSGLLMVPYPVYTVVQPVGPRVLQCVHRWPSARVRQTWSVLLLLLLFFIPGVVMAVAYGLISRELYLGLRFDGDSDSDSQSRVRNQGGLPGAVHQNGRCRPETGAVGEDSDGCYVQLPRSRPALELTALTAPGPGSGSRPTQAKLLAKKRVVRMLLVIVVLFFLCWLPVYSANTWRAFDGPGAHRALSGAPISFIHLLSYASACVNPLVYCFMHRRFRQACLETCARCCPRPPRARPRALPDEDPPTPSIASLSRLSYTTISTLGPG", "details": "CCKBR, Agonist", "procedure": "as §1"}, "[9]": {"target": "168 GPCRs (Homo sapiens, UniProt P32249)", "procedure": "as §1"}, "[10]": {"target": "168 GPCRs (Homo sapiens, UniProt P41146)", "procedure": "as §1"}, "[11]": {"target": "168 GPCRs (Homo sapiens, UniProt P43119)", "sequence (P43119 whole entry)": "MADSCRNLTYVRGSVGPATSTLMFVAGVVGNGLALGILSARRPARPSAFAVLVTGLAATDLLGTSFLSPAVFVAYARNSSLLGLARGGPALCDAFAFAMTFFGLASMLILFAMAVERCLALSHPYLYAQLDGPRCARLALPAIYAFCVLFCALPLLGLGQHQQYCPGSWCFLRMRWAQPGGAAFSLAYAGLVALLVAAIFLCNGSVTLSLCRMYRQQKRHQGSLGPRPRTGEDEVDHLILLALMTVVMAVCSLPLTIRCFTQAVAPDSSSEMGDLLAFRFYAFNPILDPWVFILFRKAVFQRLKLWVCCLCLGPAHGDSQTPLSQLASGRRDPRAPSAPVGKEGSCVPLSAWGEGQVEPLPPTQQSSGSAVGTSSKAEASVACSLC", "details": "PTGIR", "procedure": "as §1"}, "[12]": {"target": "168 GPCRs (Homo sapiens, UniProt P47871)", "sequence (P47871 26-477)": "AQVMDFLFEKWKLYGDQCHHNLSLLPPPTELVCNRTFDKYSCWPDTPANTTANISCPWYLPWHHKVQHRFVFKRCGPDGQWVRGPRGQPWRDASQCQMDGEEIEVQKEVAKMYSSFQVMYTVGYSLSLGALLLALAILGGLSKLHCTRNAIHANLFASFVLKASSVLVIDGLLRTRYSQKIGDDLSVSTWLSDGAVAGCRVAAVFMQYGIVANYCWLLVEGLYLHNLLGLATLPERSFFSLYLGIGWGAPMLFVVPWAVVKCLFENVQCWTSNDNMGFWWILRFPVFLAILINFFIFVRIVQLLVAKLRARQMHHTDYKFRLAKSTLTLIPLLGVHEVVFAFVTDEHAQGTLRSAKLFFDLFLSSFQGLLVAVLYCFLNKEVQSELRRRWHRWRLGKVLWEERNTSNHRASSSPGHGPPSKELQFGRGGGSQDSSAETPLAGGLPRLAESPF", "details": "GCGR", "procedure": "as §1"}, "[13]": {"target": "168 GPCRs (Homo sapiens, UniProt P51679)", "sequence (P51679 whole entry)": "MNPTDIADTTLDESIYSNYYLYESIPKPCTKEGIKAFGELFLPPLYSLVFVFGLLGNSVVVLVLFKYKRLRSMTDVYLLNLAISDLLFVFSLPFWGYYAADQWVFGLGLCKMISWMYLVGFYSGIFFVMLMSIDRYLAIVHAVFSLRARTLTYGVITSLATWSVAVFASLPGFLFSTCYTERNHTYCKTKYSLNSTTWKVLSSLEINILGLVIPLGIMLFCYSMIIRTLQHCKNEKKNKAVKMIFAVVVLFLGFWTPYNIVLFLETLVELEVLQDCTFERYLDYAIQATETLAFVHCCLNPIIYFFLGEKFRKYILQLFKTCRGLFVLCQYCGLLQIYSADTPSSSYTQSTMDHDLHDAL", "details": "CCR4, Agonist", "procedure": "as §1"}, "[14]": {"target": "168 GPCRs (Homo sapiens, UniProt P61073)", "sequence (P61073 whole entry)": "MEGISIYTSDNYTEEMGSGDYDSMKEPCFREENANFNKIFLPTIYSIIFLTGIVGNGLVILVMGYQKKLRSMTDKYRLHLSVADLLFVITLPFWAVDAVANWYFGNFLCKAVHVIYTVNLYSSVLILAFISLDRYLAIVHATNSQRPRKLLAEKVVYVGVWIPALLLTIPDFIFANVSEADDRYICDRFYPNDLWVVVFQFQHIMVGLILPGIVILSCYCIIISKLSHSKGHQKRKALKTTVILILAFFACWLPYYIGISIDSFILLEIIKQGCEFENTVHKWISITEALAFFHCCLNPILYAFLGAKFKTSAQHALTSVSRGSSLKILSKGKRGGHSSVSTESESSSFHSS", "procedure": "as §1"}, "[15]": {"target": "168 GPCRs (Homo sapiens, UniProt Q8TDV5)", "sequence (Q8TDV5 whole entry)": "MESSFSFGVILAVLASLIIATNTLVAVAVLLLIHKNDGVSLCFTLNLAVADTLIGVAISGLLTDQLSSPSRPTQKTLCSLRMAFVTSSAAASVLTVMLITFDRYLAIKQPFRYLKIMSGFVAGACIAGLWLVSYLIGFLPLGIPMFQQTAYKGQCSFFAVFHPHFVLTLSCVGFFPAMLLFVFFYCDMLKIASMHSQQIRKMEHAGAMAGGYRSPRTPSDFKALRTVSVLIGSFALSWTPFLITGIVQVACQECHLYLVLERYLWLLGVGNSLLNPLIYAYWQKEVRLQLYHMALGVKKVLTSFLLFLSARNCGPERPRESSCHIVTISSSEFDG", "procedure": "as §1"}, "[16]": {"target": "168 GPCRs (Homo sapiens, UniProt Q969V1)", "procedure": "as §1"}, "[17]": {"target": "168 GPCRs (Homo sapiens, UniProt Q96LB1)", "sequence (Q96LB1 whole entry)": "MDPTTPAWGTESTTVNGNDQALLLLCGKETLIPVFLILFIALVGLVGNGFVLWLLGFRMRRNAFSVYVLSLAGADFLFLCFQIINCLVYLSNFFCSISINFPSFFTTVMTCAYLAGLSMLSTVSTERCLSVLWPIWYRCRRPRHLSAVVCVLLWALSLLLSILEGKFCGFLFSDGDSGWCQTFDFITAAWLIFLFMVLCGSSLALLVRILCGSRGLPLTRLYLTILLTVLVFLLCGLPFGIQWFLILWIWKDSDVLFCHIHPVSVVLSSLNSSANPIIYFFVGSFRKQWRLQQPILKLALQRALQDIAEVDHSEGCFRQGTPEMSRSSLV", "procedure": "as §1"}, "[18]": {"target": "168 GPCRs (Homo sapiens, UniProt Q96LB2)", "sequence (Q96LB2 whole entry)": "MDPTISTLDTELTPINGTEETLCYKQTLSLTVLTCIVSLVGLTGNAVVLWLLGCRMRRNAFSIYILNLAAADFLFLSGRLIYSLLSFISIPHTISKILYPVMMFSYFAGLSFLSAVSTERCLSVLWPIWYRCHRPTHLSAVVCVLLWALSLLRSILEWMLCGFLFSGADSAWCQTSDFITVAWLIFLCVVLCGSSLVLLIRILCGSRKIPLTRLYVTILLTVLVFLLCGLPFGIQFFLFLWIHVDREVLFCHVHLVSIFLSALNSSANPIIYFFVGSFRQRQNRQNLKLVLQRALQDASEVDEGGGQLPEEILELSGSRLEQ", "procedure": "as §1"}, "[19]": {"target": "168 GPCRs (Homo sapiens, UniProt Q99500)", "sequence (Q99500 whole entry)": "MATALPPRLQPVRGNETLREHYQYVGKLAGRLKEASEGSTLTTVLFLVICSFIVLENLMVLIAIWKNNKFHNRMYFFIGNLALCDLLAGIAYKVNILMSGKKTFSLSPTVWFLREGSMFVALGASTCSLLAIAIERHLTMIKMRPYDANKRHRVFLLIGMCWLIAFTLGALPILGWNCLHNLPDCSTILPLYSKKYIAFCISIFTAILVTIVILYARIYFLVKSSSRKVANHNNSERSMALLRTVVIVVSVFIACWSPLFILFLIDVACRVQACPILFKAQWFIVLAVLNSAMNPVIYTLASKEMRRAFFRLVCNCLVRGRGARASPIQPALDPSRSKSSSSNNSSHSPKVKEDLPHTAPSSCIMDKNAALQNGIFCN", "procedure": "as §1"}, "[20]": {"target": "168 GPCRs (Homo sapiens, UniProt Q9H1C0)", "sequence (Q9H1C0 whole entry)": "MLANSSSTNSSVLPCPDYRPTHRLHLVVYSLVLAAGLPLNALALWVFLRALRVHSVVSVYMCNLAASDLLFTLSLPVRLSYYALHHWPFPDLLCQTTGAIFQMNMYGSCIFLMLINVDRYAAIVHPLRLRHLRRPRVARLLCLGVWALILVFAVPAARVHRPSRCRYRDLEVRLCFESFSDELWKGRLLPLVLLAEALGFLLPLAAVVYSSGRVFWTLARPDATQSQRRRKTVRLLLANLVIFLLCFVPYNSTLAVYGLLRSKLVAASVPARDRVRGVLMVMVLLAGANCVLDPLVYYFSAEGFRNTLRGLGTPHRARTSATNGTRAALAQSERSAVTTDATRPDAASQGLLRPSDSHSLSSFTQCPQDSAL", "procedure": "as §1"}, "[21]": {"target": "168 GPCRs (Homo sapiens, UniProt Q9H244)", "sequence (Q9H244 whole entry)": "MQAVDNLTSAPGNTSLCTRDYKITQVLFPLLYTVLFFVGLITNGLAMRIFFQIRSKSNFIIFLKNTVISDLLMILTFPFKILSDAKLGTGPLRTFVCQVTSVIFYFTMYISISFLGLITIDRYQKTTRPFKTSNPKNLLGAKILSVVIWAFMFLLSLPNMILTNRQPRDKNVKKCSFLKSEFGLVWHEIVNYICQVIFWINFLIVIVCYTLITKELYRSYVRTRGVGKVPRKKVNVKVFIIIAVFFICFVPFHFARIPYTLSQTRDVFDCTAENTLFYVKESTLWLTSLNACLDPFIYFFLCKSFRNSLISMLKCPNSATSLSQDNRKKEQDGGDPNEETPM", "procedure": "as §1"}, "[22]": {"target": "168 GPCRs (Homo sapiens, UniProt Q9HBW0)", "procedure": "as §1"}, "[23]": {"target": "168 GPCRs (Homo sapiens, UniProt Q9HC97)", "procedure": "as §1"}}, "data": [{"smiles": "CNC(C)C(=O)c1ccc2c(c1)OCO2", "note": "(stereo not shown) [methylone, 3,4-methylenedioxy-N-methylcathinone]", "values": [{"measurement": "activity at 10 µM", "setting": "[1]; EDG5, Agonist mode, 10 uM", "value": 3.7, "unit": "%"}, {"measurement": "activity at 1 µM", "setting": "[1]; EDG5, Agonist, 1 uM", "value": -4.7, "unit": "%"}, {"measurement": "activity at 1 µM", "setting": "[2]; 1 uM", "value": -1.7, "unit": "%"}, {"measurement": "activity at 10 µM", "setting": "[2]; 10 uM", "value": -1.4, "unit": "%"}, {"measurement": "activity at 10 µM", "setting": "[3]; Agonist mode, 10 uM", "value": 0.7, "unit": "%"}, {"measurement": "activity at 1 µM", "setting": "[3]; Agonist, 1 uM", "value": 0.1, "unit": "%"}, {"measurement": "activity at 10 µM", "setting": "[4]; TACR2, Agonist mode, 10 uM", "value": -3.3, "unit": "%"}, {"measurement": "activity at 1 µM", "setting": "[4]; TACR2, Agonist, 1 uM", "value": -1.9, "unit": "%"}, {"measurement": "activity at 10 µM", "setting": "[5]; DRD4, Agonist mode, 10 uM", "value": 9.4, "unit": "%"}, {"measurement": "activity at 1 µM", "setting": "[5]; DRD4, Agonist, 1 uM", "value": -8, "unit": "%"}, {"measurement": "activity at 1 µM", "setting": "[6]; 1 uM", "value": -0.9, "unit": "%"}, {"measurement": "activity at 10 µM", "setting": "[6]; 10 uM", "value": 1, "unit": "%"}, {"measurement": "activity at 10 µM", "setting": "[7]; SSTR2, Agonist mode, 10 uM", "value": 0.7, "unit": "%"}, {"measurement": "activity at 1 µM", "setting": "[7]; SSTR2, Agonist, 1 uM", "value": 0, "unit": "%"}, {"measurement": "activity at 1 µM", "setting": "[8]; 1 uM", "value": -1, "unit": "%"}, {"measurement": "activity at 10 µM", "setting": "[8]; 10 uM", "value": 1.5, "unit": "%"}, {"measurement": "activity at 10 µM", "setting": "[9]; EBI2, Agonist mode, 10 uM", "value": 0.1, "unit": "%"}, {"measurement": "activity at 1 µM", "setting": "[9]; EBI2, Agonist, 1 uM", "value": 0.5, "unit": "%"}, {"measurement": "activity at 10 µM", "setting": "[10]; OPRL1, Agonist mode, 10 uM", "value": -2.3, "unit": "%"}, {"measurement": "activity at 1 µM", "setting": "[10]; OPRL1, Agonist, 1 uM", "value": -1.6, "unit": "%"}, {"measurement": "activity at 10 µM", "setting": "[11]; Agonist mode, 10 uM", "value": -2.3, "unit": "%"}, {"measurement": "activity at 1 µM", "setting": "[11]; Agonist, 1 uM", "value": -4.4, "unit": "%"}, {"measurement": "activity at 10 µM", "setting": "[12]; Agonist mode, 10 uM", "value": -3, "unit": "%"}, {"measurement": "activity at 1 µM", "setting": "[12]; Agonist, 1 uM", "value": -2.3, "unit": "%"}, {"measurement": "activity at 1 µM", "setting": "[13]; 1 uM", "value": -0.5, "unit": "%"}, {"measurement": "activity at 10 µM", "setting": "[13]; 10 uM", "value": 1.4, "unit": "%"}, {"measurement": "activity at 10 µM", "setting": "[14]; CXCR4, Agonist mode, 10 uM", "value": 7, "unit": "%"}, {"measurement": "activity at 1 µM", "setting": "[14]; CXCR4, Agonist, 1 uM", "value": -4, "unit": "%"}, {"measurement": "activity at 10 µM", "setting": "[15]; GPR119, Agonist mode, 10 uM", "value": -2.2, "unit": "%"}, {"measurement": "activity at 1 µM", "setting": "[15]; GPR119, Agonist, 1 uM", "value": -5.8, "unit": "%"}, {"measurement": "activity at 10 µM", "setting": "[16]; MCHR2, Agonist mode, 10 uM", "value": -0.7, "unit": "%"}, {"measurement": "activity at 1 µM", "setting": "[16]; MCHR2, Agonist, 1 uM", "value": -1.5, "unit": "%"}, {"measurement": "activity at 10 µM", "setting": "[17]; MRGPRX2, Agonist mode, 10 uM", "value": 0.73, "unit": "%"}, {"measurement": "activity at 1 µM", "setting": "[17]; MRGPRX2, Agonist, 1 uM", "value": 1.4, "unit": "%"}, {"measurement": "activity at 10 µM", "setting": "[18]; MRGPRX1, Agonist mode, 10 uM", "value": -1.5, "unit": "%"}, {"measurement": "activity at 1 µM", "setting": "[18]; MRGPRX1, Agonist, 1 uM", "value": -1.7, "unit": "%"}, {"measurement": "activity at 10 µM", "setting": "[19]; EDG3, Agonist mode, 10 uM", "value": -8.6, "unit": "%"}, {"measurement": "activity at 1 µM", "setting": "[19]; EDG3, Agonist, 1 uM", "value": -9.4, "unit": "%"}, {"measurement": "activity at 10 µM", "setting": "[20]; GPR92, Agonist mode, 10 uM", "value": -3.5, "unit": "%"}, {"measurement": "activity at 1 µM", "setting": "[20]; GPR92, Agonist, 1 uM", "value": -1.6, "unit": "%"}, {"measurement": "activity at 10 µM", "setting": "[21]; P2RY12, Agonist mode, 10 uM", "value": -2.5, "unit": "%"}, {"measurement": "activity at 1 µM", "setting": "[21]; P2RY12, Agonist, 1 uM", "value": -1.5, "unit": "%"}, {"measurement": "activity at 10 µM", "setting": "[22]; EDG4, Agonist mode, 10 uM", "value": -2.1, "unit": "%"}, {"measurement": "activity at 1 µM", "setting": "[22]; EDG4, Agonist, 1 uM", "value": -2.2, "unit": "%"}, {"measurement": "activity at 10 µM", "setting": "[23]; GPR35, Agonist mode, 10 uM", "value": 2.5, "unit": "%"}, {"measurement": "activity at 1 µM", "setting": "[23]; GPR35, Agonist, 1 uM", "value": 2.2, "unit": "%"}]}]}
